The term IC50 denotes the concentration at which inhibition is half-maximal.

In series [1] the test system is MCF7. Nature of the series: Antiproliferative activity against human MCF7 cells assessed as inhibition of cell growth incubated for 72 hrs by MTT assay. It counts as functional, cell-based. As to conditions: MCF7, 72 h. In general terms: Formazan colour is commonly taken as a measure of viable cells.
Series [2] concerns MGC-803. Nature of the series: Antiproliferative activity against human MGC-803 cells assessed as inhibition of cell growth incubated for 72 hrs by MTT assay. It counts as functional, cell-based. As to conditions: MGC-803, 72 h.
The subject of series [3] is HepG2. As to the kind of experiment: Antiproliferative activity against human HepG2 cells assessed as inhibition of cell growth incubated for 72 hrs by MTT assay. It counts as functional, cell-based. As to conditions: HepG2, 72 h.
The test system of series [4] is PC-3. As to the kind of experiment: Antiproliferative activity against human PC-3 cells assessed as inhibition of cell growth incubated for 72 hrs by MTT assay. It counts as functional, cell-based. As to conditions: PC-3, 72 h.
The nature of series [5]: Selectivity ratio of IC50 for cytotoxicity against human WPMY-1 cells to IC50 for antiproliferative activity against human PC-3 cells. It counts as toxicity, cell-based. As to conditions: WPMY-1 cells and PC-3 cells, read-out: Ratio IC50.
Series [6] can be described thus: Cytotoxicity against human WPMY-1 cells assessed as inhibition of cell growth incubated for 72 hrs by MTT assay. It counts as toxicity, cell-based.
Series [7] can be described thus: Toxicity in wild type KM mouse assessed as change in heart morphology at 2 g/Kg, IG measured for 2 weeks by H and E staining based microscopic analysis. It counts as tissue-based. To be noted: in vivo, po, 2000 mg/kg, 336 h.
Series [8] can be described thus: Toxicity in wild type KM mouse assessed as change in kidney morphology at 2 g/Kg, IG measured for 2 weeks by H and E staining based microscopic analysis. To be noted: in vivo, po, 2000 mg/kg, 336 h.
Series [9] in a line: Toxicity in wild type KM mouse assessed as animal survival at 2 g/Kg, IG measured for 2 weeks. As to conditions: in vivo, po, 2000 mg/kg, 336 h.
Series [10] concerns PC-3. As to the kind of experiment: Inhibition of colony formation in human PC-3 cells incubated for 7 days by crystal violet staining based analysis. It counts as functional, cell-based. As to conditions: dose 2-8 µM, time 7.0 day, DDE = dose-dependent effect.
Series [11] can be described thus: Toxicity in wild type KM mouse assessed as change in spleen morphology at 2 g/Kg, IG measured for 2 weeks by H and E staining based microscopic analysis. To be noted: in vivo, po, 2000 mg/kg, 336 h.
Series [12] can be described thus: Toxicity in wild type KM mouse assessed as change in lung morphology at 2 g/Kg, IG measured for 2 weeks by H and E staining based microscopic analysis. As to conditions: in vivo, po, 2000 mg/kg, 336 h.
A short description of series [13]: Toxicity in wild type KM mouse assessed as change in liver morphology at 2 g/Kg, IG measured for 2 weeks by H and E staining based microscopic analysis. It counts as tissue-based. To be noted: in vivo, po, 2000 mg/kg, 336 h.
Series [14] can be described thus: Toxicity in wild type KM mouse assessed as change in prostate morphology at 2 g/Kg, IG measured for 2 weeks by H and E staining based microscopic analysis. As to conditions: in vivo, po, 2000 mg/kg, 336 h.
Series [15] in a line: Toxicity in wild type KM mouse assessed as behavioral abnormalities at 2 g/Kg, IG measured for 2 weeks. As to conditions: in vivo, po, 2000 mg/kg, 336 h.
The test system of series [16] is PC-3. As to the kind of experiment: Induction of cell cycle arrest in human PC-3 cells assessed as accumulation of cells in G2/M phase at 8 uM incubated for 24 hrs by RNase/PI staining based flow cytometry analysis (reference value: 22.17%). It counts as functional. A general note: In flow cytometry, cells or beads pass a laser one at a time.

Turning to `CC(C)n1ncc2c(C(=O)NCc3cn(Cc4ccc(C(F)(F)F)cc4)nn3)cccc21`, the IC50 in [1] was > 40 µM; in [2], > 40 µM; in series [3], > 40 µM; in [4] it was 23.9 µM.

Regarding `CNC(=O)c1ccc(N2C(=S)N(c3ccc(C#N)c(C(F)(F)F)c3)C(=O)C2(C)C)cc1F` [ENZALUTAMIDE], the selectivity ratio in series [5] was 2.49. The IC50 in [4] was determined as 24.6 µM. In addition, the IC50 at 72 h in series [6] came to 61.4 µM.

Turning to `COc1ccc(-n2cc(CNC(=O)c3cccc4c3cnn4C(C)C)nn2)cc1`, the IC50 was > 40 µM in series [1], > 40 µM in series [2], > 40 µM in [3] and 34.3 µM in [4].

As for `CCc1ccc(-n2cc(CNC(=O)c3cccc4c3cnn4C(C)C)nn2)cc1`, the IC50 is > 40 µM in [1], > 40 µM in series [2], > 40 µM in series [3] and 26.6 µM in series [4].

Turning to `COc1ccc(Cn2cc(CNC(=O)c3cccc4c3cnn4C(C)C)nn2)cc1`, the IC50 in series [1] was > 40 µM; in [2], > 40 µM; in series [3], > 40 µM; in [4], 34 µM.

Consider `CC(C)n1ncc2c(C(=O)NCc3cn(Cc4ccccc4)nn3)cccc21`, for which the Activity entry in series [7], in series [8], in series [9], in [11], in [12] and in series [13] was “Non-Toxic” each time. For the same compound, the Activity result in [14] is “Non-Toxic”; in series [15] it was “Non-Toxic”; in [16], 72.25%. In addition, the IC50 came out at 9.17 µM in series [1], 14.3 µM in series [2], 13.7 µM in series [3] and 4.42 µM in series [4]. For the same compound, the inhibition result in series [10] is “Dde”. In addition, the selectivity ratio in series [5] was found to be 4.42. In addition, in [6], the IC50 at 72 h came to 20.3 µM.

On to `CC(C)n1ncc2c(C(=O)NCCN3CCCC3)cccc21`, for which the IC50 in [1], in series [2], in [3] and in [4] was > 40 µM throughout.

For `CC(C)n1ncc2c(C(=O)Nc3cccnc3)cccc21`, the half-maximal inhibitory concentration (IC50) in [1], in series [2], in series [3] and in series [4] was > 40 µM each time.

Turning to `Cc1ccc(-n2cc(CNC(=O)c3cccc4c3cnn4C(C)C)nn2)cc1`, the IC50 in series [1] was > 40 µM; in series [2], > 40 µM; in series [3], > 40 µM; in series [4], 39 µM.

Regarding `CC(C)n1ncc2c(C(=O)NCCN3CCN(C)CC3)cccc21`, the IC50 in [1], in series [2], in [3] and in series [4] was > 40 µM in each case.

Turning to `CC(C)n1ncc2c(C(=O)NCCN(C)C)cccc21`, the IC50 in [1], in series [2], in series [3] and in series [4] was > 40 µM throughout.

Take `Cc1ccc(-n2cc(CNC(=O)c3cccc4c3cnn4C(C)C)nn2)c(C)c1`: the IC50 is > 40 µM in series [1], > 40 µM in series [2], > 40 µM in [3] and 10.6 µM in [4].

`CC(C)n1ncc2c(C(=O)NCc3cn(-c4ccc(I)cc4)nn3)cccc21`: the concentration for half-maximal inhibition (IC50) in series [1], in series [2], in [3] and in [4] was > 40 µM each time.

As for `CC(C)n1ncc2c(C(=O)NCc3cn(-c4cccc(Br)c4)nn3)cccc21`, the IC50 in series [1] was > 40 µM; in series [2], > 40 µM; in series [3] it was > 40 µM; in series [4] it was 33.7 µM.

With `CC(C)n1ncc2c(C(=O)NCc3ccccc3)cccc21`, the IC50 in [1] was > 40 µM; in [2], > 40 µM; in series [3] it was > 40 µM; in series [4], 15.2 µM.

Turning to `CC(C)n1ncc2c(C(=O)NCc3cn(-c4ccc(F)cc4)nn3)cccc21`, the IC50 in [1], in series [2], in series [3] and in series [4] was > 40 µM in each case.

On to `CC(C)n1ncc2c(C(=O)NCc3cn(Cc4ccc(C#N)cc4)nn3)cccc21`, for which the IC50 in series [1] is > 40 µM; in [2] it was 39.6 µM; in series [3] it was > 40 µM; in series [4] it was 18.2 µM.

As to `Cc1ccccc1-n1cc(CNC(=O)c2cccc3c2cnn3C(C)C)nn1`, the IC50 is > 40 µM in [1], > 40 µM in series [2], > 40 µM in series [3] and 19.2 µM in series [4].

Regarding `CC(C)n1ncc2c(C(=O)NCc3cn(-c4ccc([N+](=O)[O-])cc4)nn3)cccc21`, the half-maximal inhibitory concentration (IC50) in series [1], in [2], in series [3] and in [4] was > 40 µM in each case.

For `CC(C)n1ncc2c(C(=O)NC3CCCC3)cccc21`, the IC50 was > 40 µM in series [1], > 40 µM in [2], > 40 µM in series [3] and 19.4 µM in series [4].

Turning to `CC(C)n1ncc2c(C(=O)NCCN3CCCCC3)cccc21`, the IC50 in [1], in series [2], in series [3] and in series [4] was > 40 µM throughout.

As for `Cc1ccc(-n2cc(CNC(=O)c3cccc4c3cnn4C(C)C)nn2)cc1C`, the IC50 in series [1] was > 40 µM; in [2] it was > 40 µM; in series [3] it was > 40 µM; in [4] it was 23.4 µM.

In the case of `Cc1cccc(-n2cc(CNC(=O)c3cccc4c3cnn4C(C)C)nn2)c1`, the IC50 was > 40 µM in series [1], > 40 µM in series [2], > 40 µM in series [3] and 32.3 µM in series [4].

On to `CC(C)n1ncc2c(C(=O)NCc3cn(-c4ccc(C(F)(F)F)cc4)nn3)cccc21`, for which the half-maximal inhibitory concentration (IC50) is > 40 µM in series [1], > 40 µM in series [2], > 40 µM in series [3] and 38.6 µM in series [4].

Consider `CC(C)n1ncc2c(C(=O)NCc3cn(Cc4ccc(C(C)(C)C)cc4)nn3)cccc21`, for which the IC50 in series [1] was > 40 µM; in series [2] it was > 40 µM; in series [3] it was > 40 µM; in [4], 8.89 µM.

As to `CC(C)n1ncc2c(C(=O)Nc3ccccc3)cccc21`, the IC50 stood at 19.7 µM in series [1], 38.5 µM in [2], 23.7 µM in series [3] and 11.9 µM in series [4].

Take `CC(C)n1ncc2c(C(=O)NCc3cn(-c4cccc(F)c4)nn3)cccc21`: the IC50 was > 40 µM in series [1], > 40 µM in [2], > 40 µM in series [3] and 36.1 µM in series [4].

For the compound `O=c1[nH]cc(F)c(=O)[nH]1` [FLUOROURACIL], the IC50 in series [1] stood at 15.1 µM; in series [3], 11.7 µM.

With `CC(C)n1ncc2c(C(=O)NCc3cn(-c4ccccc4F)nn3)cccc21`, the IC50 in [1], in series [2], in series [3] and in series [4] was > 40 µM throughout.

Consider `CC(C)n1ncc2c(C(=O)NCc3cn(-c4ccccc4)nn3)cccc21`, for which the IC50 in series [1] is > 40 µM; in series [2], > 40 µM; in [3] it was > 40 µM; in series [4] it was 25.9 µM.
